Results published in patent publication US20130204033A1, “ANTIPROLIFERATIVE COMPOUNDS, CONJUGATES THEREOF, METHODS THEREFOR, AND USES THEREOF” (Medarex, Inc., priority 2009, published 2013).
Like-named read-outs stand apart in the source and are kept apart here.

Legend:
Assay type in all cases: cell-based, human
NCI-H460 = test: 3H thymidine proliferation assay, NCI-H460; settings: Homo sapiens, NCI-H460, read-out: EC50, NCI-H460, 3H thymidine method, 72 h incubation
Procedure: (§1) This example generally describes the procedures used to assay the antiproliferative activity of compounds of this invention or their conjugates. Human tumor cell lines were obtained from the American Type Culture Collection (ATCC), P.O. Box 1549, Manassas, Va. 20108, USA, and cultured according to instruction from the ATCC. Cells were seeded at 1.0×10^3 or 1.0×10^4 cells/well in 96-well plates for 3 h for ATP assays or ^3H thymidine assays, respectively. 1:3 serial dilutions of free (unconjugated) compounds or their conjugates were added to the wells. Plates were allowed to incubate for 24 to 72 h. The ^3H thymidine plates were pulsed with 1.0 μCi of ^3H-thymidine per well for the last 24 hours of the total incubation period, harvested, and read on a Top Count Scintillation Counter (Packard Instruments, Meriden, Conn.). ATP levels in the ATP plates were measured using the […]-GLO® Luminescent Cell Viability kit following the manufacturer's manual and read on a GLOMAX® 20/20 luminometer (both from Promega, Madison, Wis., USA). The EC50 values—the concentration at which an agent inhibits or reduces cell proliferation by 50% —were determined using PRISM™ software, version 4.0 (GraphPad Software, La Jolla, Calif., USA).
(§2) Using the ^3H thymidine or the ATP luminescence assay, or both, the activities of compounds of this invention were assayed against the following cancer cell lines: HCT-15 (colorectal cancer, multi-drug resistant (MDR)); Hep3B (liver cancer); LNCaP (prostate cancer, androgen receptor positive (AR^+)); MDA-MB-231 (breast cancer, estrogen receptor, progesterone receptor, and Her2 negative (triple negative)); A2058 (melanoma); U-87 MG (glioblastoma); NCI-H460 (NSCLC); A549 (NSCLC); HPAC (pancreatic cancer, primary); PC3 (prostate cancer, AR); BT474 (breast cancer, Her2 highly positive (Her2hi)); SKOV3 (ovarian cancer, Her2hi); 786-O (renal cancer); UO-31 (renal cancer, MDR); NCI-H740 (SCLC); DMS53 (SCLC); SK-BR3 (breast cancer, Her2hi); ZR-75 (breast cancer, estrogen receptor positive); OVCAR3 (ovarian cancer); HL-60 (APL); OVCAR8/Adr (ovarian cancer, MDR); CEM-Cl (ALL); Nomo-1 (AML); RPMI-8226 (MM)); Raji (lymphoma); SW-480 (colorectal cancer, metastatic); SW-620 (colorectal cancer); and H226 (lung cancer). (Not all compounds were assayed against all cell lines.)
(§3) Table 2 provides the data for proliferation assays using the ^3H thymidine method, with an incubation period of 72 h.

H740 = test: 3H thymidine proliferation assay, H740; settings: Homo sapiens, read-out: EC50, H740, 3H thymidine method, 72 h incubation
Procedure: as §1, §2, §3

OVCAR3 = test: 3H thymidine proliferation assay, OVCAR3; settings: Homo sapiens, OVCAR-3, read-out: EC50, OVCAR3, 3H thymidine method, 72 h incubation
Procedure: as §1, §2, §3

Nomo-1 = test: 3H thymidine proliferation assay, Nomo-1; settings: Homo sapiens, NOMO-1, read-out: EC50, Nomo-1, 3H thymidine method, 72 h incubation
Procedure: as §1, §2, §3

Raji = test: 3H thymidine proliferation assay, Raji; settings: Homo sapiens, Raji, read-out: EC50, Raji, 3H thymidine method, 72 h incubation
Procedure: as §1, §2, §3

HCT-15 = test: ATP luminescence proliferation assay, HCT-15; settings: Homo sapiens
Procedure: as §1, §2
(§4) Table 3 provides the data for the ATP luminescence proliferation assays, with an incubation period of 48, 72, or 96 h, as noted.

Hep3B = test: ATP luminescence proliferation assay, Hep3B; settings: Homo sapiens, 48 h, read-out: EC50 Hep3B (48 h), ATP luminescence, Hep3B, 48 h incubation
Procedure: as §1, §2, §4

LNCaP = test: ATP luminescence proliferation assay, LNCaP; settings: Homo sapiens, 72 h, read-out: EC50 LNCaP (72 h), ATP luminescence, LNCaP, 72 h incubation
Procedure: as §1, §2, §4

U-87 MG = test: ATP luminescence proliferation assay, U-87 MG; settings: Homo sapiens, 72 h, read-out: EC50 U-87 MG (72 h), ATP luminescence, U-87 MG, 72 h incubation
Procedure: as §1, §2, §4

DMS53 = test: ATP luminescence proliferation assay, DMS53; settings: Homo sapiens
Procedure: as §1, §2, §4

SK-BR3 = test: ATP luminescence proliferation assay, SK-BR3; settings: Homo sapiens, SK-BR-3, 48 h, read-out: EC50 SK-BR3 (48 h), ATP luminescence, SK-BR3, 48 h incubation
Procedure: as §1, §2, §4

ZR-75 = test: ATP luminescence proliferation assay, ZR-75; settings: Homo sapiens, ZR75, 48 h, read-out: EC50 ZR-75 (48 h), ATP luminescence, ZR-75, 48 h incubation
Procedure: as §1, §2, §4

CEM-Cl = test: ATP luminescence proliferation assay, CEM-C1; settings: Homo sapiens
Procedure: as §1, §2, §4

A549 = test: ATP luminescence proliferation assay, A549; settings: Homo sapiens, A549, 48 h, read-out: EC50 A549 (48 h), ATP luminescence, A549, 48 h incubation
Procedure: as §1, §2, §4

[1] = HCT-15, 72 h, read-out: EC50 HCT-15 (72 h), ATP luminescence, HCT-15, 72 h incubation
[2] = DMS-53, 48 h, read-out: EC50 DMS53 (48 h), ATP luminescence, DMS53, 48 h incubation
[3] = CEM/C1, 72 h, read-out: EC50 CEM-C1 (72 h), ATP luminescence, CEM-C1, 72 h incubation

Row | Structure (SMILES) | EC50 (NCI-H460) [µM] | EC50 (H740) [µM] | EC50 (OVCAR3) [µM] | EC50 (Nomo-1) [µM] | EC50 (Raji) [µM] | EC50 (HCT-15; HCT-15, 48 h, read-out: EC50 HCT-15 (48 h), ATP luminescence, HCT-15, 48 h incubation) [µM] | EC50 (Hep3B) [µM] | EC50 (LNCaP) [µM] | EC50 (U-87 MG) [µM] | EC50 (DMS53; DMS-53, 72 h, read-out: EC50 DMS53 (72 h), ATP luminescence, DMS53, 72 h incubation) [µM] | EC50 (SK-BR3) [µM] | EC50 (ZR-75) [µM] | EC50 (CEM-Cl; CEM/C1, 48 h, read-out: EC50 CEM-C1 (48 h), ATP luminescence, CEM-C1, 48 h incubation) [µM] | EC50 (HCT-15; [1]) [µM] | EC50 (A549) [µM] | EC50 (DMS53; [2]) [µM] | EC50 (CEM-Cl; [3]) [µM]
1 | CC[C@H](C)[C@H](NC(=O)[C@H]1CCCCN1C)C(=O)N(C)[C@H](C[C@@H](OC)c1nc(C(=O)N[C@H](CCC(=O)OC)Cc2ccccc2)cs1)C(C)C [Compound 26] | 0.018 | 0.003 | 0.0032 | 0.00036 | 0.007 | 0.113 | 0.1 | 0.412 | 0.094 | 0.193 | 0.253 | 0.208 | 0.061 |  |  |  | 
2 | CC[C@H](C)[C@H](NC(=O)[C@H]1CCCCN1C)C(=O)N(C)[C@H](C[C@@H](OC(C)=O)c1nc(C(=O)N[C@@H](Cc2ccc(N)cc2)CC(C)C(=O)O)cs1)C(C)C (some centres unmarked) [Compound 36] | 0.052 | > 0.1 | > 0.1 | 0.124 | 0.015 |  | 0.086 | > 0.3 | 0.037 |  | > 0.3 | > 0.3 |  | 0.096 | 0.0019 | ~0.3 | 0.04
3 | CC[C@H](C)[C@H](NC(=O)[C@H]1CCCCN1C)C(=O)N(COC(=O)CC(C)C)[C@H](C[C@@H](OC(C)=O)c1nc(C(=O)N[C@@H](Cc2ccc(N)cc2)CC(C)C(=O)O)cs1)C(C)C (some centres unmarked) [Compound 54] | 0.00031 | 0.01 | 0.0039 | 0.00077 | 0.0002 |  | 0.0015 | 0.011 | 0.0016 |  | 0.0062 | 0.0096 |  | 0.0026 | 0.003 | 0.0079 | 0.0012
